Measurements from patent US8952024B2, “Herbicidal pyrimidone derivatives” (E I du Pont de Nemours and Company, priority 2009, dated 2015).

Legend:
Format in all cases: in vivo
rice (Oryza sativa) = experiment: Test B flooded paddy test; conditions: for Rice plant response rating: Flood, 31 g ai/ha, scale 0 to 100 (0 no effect, 100 complete control)
Outline: (§1)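 Rice, umbrella sedge, ducksalad and barnyardgrass were grown to the 2-leaf stage, flooded to 3 cm, and compound was applied directly to the paddy water, with that depth kept throughout. After 13 to 15 days in the greenhouse, plants were visually rated against controls on a 0 (no effect) to 100 (complete control) scale.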

[1] = tested on: umbrella sedge (Cyperus difformis); experiment: Test B flooded paddy test; conditions: for Sedge, Umbrella plant response rating: Flood, 31 g ai/ha, scale 0 to 100 (0 no effect, 100 complete control)
Outline: as §1

[2] = tested on: ducksalad (Heteranthera limosa); experiment: Test B flooded paddy test; conditions: for Ducksalad plant response rating: Flood, 31 g ai/ha, scale 0 to 100 (0 no effect, 100 complete control)
Outline: as §1

[3] = tested on: barnyardgrass (Echinochloa crus-galli); experiment: Test B flooded paddy test; conditions: for Barnyardgrass plant response rating: Flood, 31 g ai/ha, scale 0 to 100 (0 no effect, 100 complete control)
Outline: as §1

[4] = tested on: windgrass (Apera spica-venti); experiment: Test B postemergence plant response
Source text: (§2) At the same time, plants selected from these crop and weed species and also winter barley (Hordeum vulgare), canarygrass (Phalaris minor), chickweed (Stellaria media) and windgrass (Apera spica-venti) were planted in pots containing Redi-Earth® planting medium (Scotts Company, 14111 Scottslawn Road, Marysville, Ohio 43041) comprising spaghnum peat moss, vermiculite, wetting agent and starter nutrients and treated with postemergence applications of some of the test chemicals formulated in the same manner. Plants ranged in height from 2 to 18 cm (1- to 4-leaf stage) for postemergence treatments.
(§3) Treated plants and controls were maintained in a greenhouse for 13 to 15 days, after which time all treated plants were visually evaluated and compared to controls. Plant response ratings, summarized in Table B, are based on a scale of 0 to 100 where 0 is no effect and 100 is complete control. A dash (-) response means no test result.

[5] = tested on: canarygrass (Phalaris minor); experiment: Test B postemergence plant response
Source text: as §2, §3

[6] = tested on: chickweed (Stellaria media); experiment: Test B postemergence plant response
Source text: as §2, §3

[7] = tested on: winter barley (Hordeum vulgare); experiment: Test B postemergence plant response
Source text: as §2, §3

[8] = tested on: morningglory (Ipomoea coccinea); experiment: Test B pre-/postemergence plant response
Outline: (§4)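 Pre-em in loam/sand; post-em at 1–4 leaf (2–18 cm) in peat mix. Solvent + surfactant formulation. Greenhouse 13–15 d; visual % control vs untreated, 0–100.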

[9] = tested on: bermudagrass (Cynodon dactylon); experiment: Test B pre-/postemergence plant response
Outline: as §4

[10] = 62 g ai/ha, postemergence, 0 is no effect, 100 is complete control, 13 to 15 days
[11] = 250 g ai/ha, flooded paddy test, visual rating on 0 to 100 scale (0 no effect, 100 complete control) after 13 to 15 days
[12] = Flood (flooded paddy test), 62 g ai/ha, scale of 0 to 100 where 0 is no effect and 100 is complete control, 13 to 15 days
[13] = Flood (flooded paddy test), 125 g ai/ha, scale 0 to 100, 0 is no effect, 100 is complete control, 13 to 15 days
[14] = Postemergence, 31 g ai/ha, 0 to 100 scale (0 no effect, 100 complete control)
[15] = Postemergence, 250 g ai/ha, scale 0 to 100 (0 no effect, 100 complete control), 13 to 15 days
[16] = Postemergence, 62 g ai/ha, scale 0 to 100 (0 no effect, 100 complete control)
[17] = Postemergence, 125 g ai/ha, scale 0 to 100 (0 no effect, 100 complete control)

With COCCn1c(-c2ccsc2)ncc(C(=O)C2=C(O)CCCC2=O)c1=O [Compound 97, 5-[(2-hydroxy-6-oxo-1-cyclohexen-1-yl)carbonyl]-3-(2-methoxyethyl)-2-(3-thienyl)-4(3H)-pyrimidinone] the “Rice plant response rating” value (rice (Oryza sativa)) was 0, the plant injury at 250 g/ha (rice (Oryza sativa); Oryza sativa, 250 g ai/ha, flooded paddy test, visual rating on 0 to 100 scale (0 no effect, 100 complete control) after 13 to 15 days, read-out: Plant response rating, Flood, Rice) was 40% and the plant injury at 62 g/ha (rice (Oryza sativa); Oryza sativa, Flood (flooded paddy test), 62 g ai/ha, scale of 0 to 100 where 0 is no effect and 100 is complete control, 13 to 15 days, read-out: Plant response rating, Rice) was 0%. For the same molecule, the plant injury at 125 g/ha (rice (Oryza sativa); Oryza sativa, Flood (flooded paddy test), 125 g ai/ha, scale 0 to 100, 0 is no effect, 100 is complete control, 13 to 15 days, read-out: Plant response rating, Rice) was 0%, the pest or weed control at 250 g/ha ([1]; Cyperus difformis, 360 h, 250 g ai/ha, flooded paddy test, visual rating on 0 to 100 scale (0 no effect, 100 complete control) after 13 to 15 days, read-out: Plant response rating, Flood, Sedge, Umbrella) was 80% and the pest or weed control at 62 g/ha ([1]; Cyperus difformis, 360 h, Flood (flooded paddy test), 62 g ai/ha, scale of 0 to 100 where 0 is no effect and 100 is complete control, 13 to 15 days, read-out: Plant response rating, Sedge, Umbrella) was 40%. The pest or weed control at 125 g/ha ([1]; Cyperus difformis, 360 h, Flood (flooded paddy test), 125 g ai/ha, scale 0 to 100, 0 is no effect, 100 is complete control, 13 to 15 days, read-out: Plant response rating, Sedge, Umbrella) was 70%, the “Sedge, Umbrella plant response rating” value [1] was 30 and the “Ducksalad plant response rating” value [2] was 30. For the same molecule, the pest or weed control at 250 g/ha ([2]; Heteranthera limosa, 360 h, 250 g ai/ha, flooded paddy test, visual rating on 0 to 100 scale (0 no effect, 100 complete control) after 13 to 15 days, read-out: Plant response rating, Flood, Ducksalad) was 70%, the pest or weed control at 62 g/ha ([2]; Heteranthera limosa, 360 h, Flood (flooded paddy test), 62 g ai/ha, scale of 0 to 100 where 0 is no effect and 100 is complete control, 13 to 15 days, read-out: Plant response rating, Ducksalad) was 30% and the pest or weed control at 125 g/ha ([2]; Heteranthera limosa, 360 h, Flood (flooded paddy test), 125 g ai/ha, scale 0 to 100, 0 is no effect, 100 is complete control, 13 to 15 days, read-out: Plant response rating, Ducksalad) was 30%. The pest or weed control at 250 g/ha ([3]; Echinochloa crus-galli, 360 h, 250 g ai/ha, flooded paddy test, visual rating on 0 to 100 scale (0 no effect, 100 complete control) after 13 to 15 days, read-out: Plant response rating, Flood, Barnyardgrass) was 75%, the pest or weed control at 62 g/ha ([3]; Echinochloa crus-galli, 360 h, Flood (flooded paddy test), 62 g ai/ha, scale of 0 to 100 where 0 is no effect and 100 is complete control, 13 to 15 days, read-out: Plant response rating, Barnyardgrass) was 40% and the pest or weed control at 125 g/ha ([3]; Echinochloa crus-galli, 360 h, Flood (flooded paddy test), 125 g ai/ha, scale 0 to 100, 0 is no effect, 100 is complete control, 13 to 15 days, read-out: Plant response rating, Barnyardgrass) was 60%. For the same molecule, the “Barnyardgrass plant response rating” value [3] was 30, the “Windgrass plant response rating (0 to 100 scale)” value [4, 10] was 50 and the pest or weed control at 31 g/ha ([4]; Apera spica-venti, post-emergence, 360 h, 31 g ai/ha, postemergence, scale 0 to 100, 0 is no effect, 100 is complete control, read-out: Plant response rating, Windgrass) was 5%. For the same molecule, the pest or weed control at 250 g/ha ([4]; Apera spica-venti, post-emergence, 360 h, Postemergence, 250 g ai/ha, scale 0 to 100 (0 no effect, 100 complete control), read-out: Plant response rating, Windgrass) was 85%, the “Canarygrass plant response rating (0 to 100 scale)” value [5, 10] was 10 and the pest or weed control at 31 g/ha ([5]; Phalaris minor, post-emergence, 360 h, 31 g ai/ha, postemergence, scale 0 to 100, 0 is no effect, 100 is complete control, read-out: Plant response rating, Canarygrass) was 0%. For the same molecule, the pest or weed control at 125 g/ha ([5]; Phalaris minor, post-emergence, 360 h, Postemergence, 125 g ai/ha, visual rating after 13 to 15 days, scale 0 (no effect) to 100 (complete control)) was 10%, the pest or weed control at 250 g/ha ([5]; Phalaris minor, post-emergence, 360 h, Postemergence, 250 g ai/ha, scale 0 to 100 (0 no effect, 100 complete control), read-out: Plant response rating, Canarygrass) was 30% and the “Chickweed plant response rating (0 to 100 scale)” value [6, 10] was 100. It also gave a pest or weed control at 31 g/ha ([6]; Stellaria media, post-emergence, 360 h, 31 g ai/ha, postemergence, scale 0 to 100, 0 is no effect, 100 is complete control, read-out: Plant response rating, Chickweed) of 95%, a pest or weed control at 125 g/ha ([6]; Stellaria media, post-emergence, 360 h, Postemergence, 125 g ai/ha, visual rating after 13 to 15 days, scale 0 (no effect) to 100 (complete control)) of 100% and a pest or weed control at 250 g/ha ([6]; Stellaria media, post-emergence, 360 h, Postemergence, 250 g ai/ha, scale 0 to 100 (0 no effect, 100 complete control), read-out: Plant response rating, Chickweed) of 100%. For the same molecule, the “Barley plant response rating (0 to 100 scale)” value [7, 10] was 0, the plant injury at 31 g/ha ([7]; Hordeum vulgare, post-emergence, 31 g ai/ha, postemergence, scale 0 to 100, 0 is no effect, 100 is complete control, read-out: Plant response rating, Barley) was 0% and the plant injury at 125 g/ha ([7]; Hordeum vulgare, post-emergence, Postemergence, 125 g ai/ha, visual rating after 13 to 15 days, scale 0 (no effect) to 100 (complete control)) was 0%. The plant injury at 250 g/ha ([7]; Hordeum vulgare, post-emergence, Postemergence, 250 g ai/ha, scale 0 to 100 (0 no effect, 100 complete control), read-out: Plant response rating, Barley) was 5%, the “Morningglory plant response rating (0 to 100 scale)” value [8, 10] was 100 and the pest or weed control at 31 g/ha ([8]; Ipomoea, post-emergence, 31 g ai/ha, postemergence, scale 0 to 100, 0 is no effect, 100 is complete control, read-out: Plant response rating, Morningglory) was 100%. The pest or weed control at 250 g/ha ([8]; Ipomoea, post-emergence, Postemergence, 250 g ai/ha, scale 0 to 100 (0 no effect, 100 complete control), read-out: Plant response rating, Morningglory) was 100%, the “Bermudagrass plant response rating (0 to 100 scale)” value [9, 10] was 95 and the pest or weed control at 31 g/ha ([9]; Cynodon dactylon, post-emergence, 31 g ai/ha, postemergence, scale 0 to 100, 0 is no effect, 100 is complete control, read-out: Plant response rating, Bermudagrass) was 95%. It also gave a pest or weed control at 125 g/ha ([9]; Cynodon dactylon, post-emergence, Postemergence, 125 g ai/ha, visual rating after 13 to 15 days, scale 0 (no effect) to 100 (complete control)) of 95% and a pest or weed control at 250 g/ha ([9]; Cynodon dactylon, post-emergence, Postemergence, 250 g ai/ha, scale 0 to 100 (0 no effect, 100 complete control), read-out: Plant response rating, Bermudagrass) of 98%.

CCCn1c(-c2ccccc2)ncc(C(=O)C2=C(O)C3CCC(C3)C2=O)c1=O (centres unmarked) [Compound 226] was tested, and the “Plant response rating, Flood, Rice” value (rice (Oryza sativa); [11]) was 65, the “Plant response rating, Rice” value (rice (Oryza sativa); [12]) was 40 and the “Plant response rating, Rice” value (rice (Oryza sativa); [13]) was 60. The “Rice plant response rating” value (rice (Oryza sativa)) was 20, the “Plant response rating, Flood, Sedge, Umbrella” value [1, 11] was 60 and the “Plant response rating, Sedge, Umbrella” value [1, 12] was 40. For the same molecule, the “Plant response rating, Sedge, Umbrella” value [1, 13] was 50, the “Sedge, Umbrella plant response rating” value [1] was 30 and the “Plant response rating, Flood, Ducksalad” value [2, 11] was 40. The “Plant response rating, Ducksalad” value [2, 12] was 0, the “Plant response rating, Ducksalad” value [2, 13] was 30 and the “Ducksalad plant response rating” value [2] was 0. For the same molecule, the “Plant response rating, Flood, Barnyardgrass” value [3, 11] was 95, the “Plant response rating, Barnyardgrass” value [3, 12] was 60 and the “Plant response rating, Barnyardgrass” value [3, 13] was 95. For the same molecule, the “Barnyardgrass plant response rating” value [3] was 50, the “Plant response rating, Windgrass” value [4, 14] was 10 and the “Plant response rating, Windgrass” value [4, 15] was 85. For the same molecule, the “Plant response rating, Windgrass” value [4, 16] was 50, the “Plant response rating, Canarygrass” value [5, 14] was 5 and the “Plant response rating, Canarygrass” value [5, 17] was 50. For the same molecule, the “Plant response rating, Canarygrass” value [5, 15] was 60, the “Plant response rating, Canarygrass” value [5, 16] was 30 and the “Plant response rating, Chickweed” value [6, 14] was 75. For the same molecule, the “Plant response rating, Chickweed” value [6, 17] was 85, the “Plant response rating, Chickweed” value [6, 15] was 95 and the “Plant response rating, Chickweed” value [6, 16] was 75. The “Plant response rating, Barley” value [7, 14] was 10, the “Plant response rating, Barley” value [7, 17] was 30 and the “Plant response rating, Barley” value [7, 15] was 60. For the same molecule, the “Plant response rating, Barley” value [7, 16] was 30, the “Plant response rating, Morningglory” value [8, 14] was 98 and the “Plant response rating, Morningglory” value [8, 17] was 100. The “Plant response rating, Morningglory” value [8, 15] was 100, the “Plant response rating, Morningglory” value [8, 16] was 98 and the “Plant response rating, Bermudagrass” value [9, 14] was 80. For the same molecule, the “Plant response rating, Bermudagrass” value [9, 17] was 85, the “Plant response rating, Bermudagrass” value [9, 15] was 98 and the “Plant response rating, Bermudagrass” value [9, 16] was 80.
